Among the data in patent publication US7932284B2, “Indole sulfonamide modulators of progesterone receptors” (Eli Lilly and Company, priority 2006, dated 2011) are Ki values, retold here.

Experiment [1] concerns the target T1, human MR (mineralocorticoid receptor) (Homo sapiens, UniProt P08235).
T1 construct: expressed in transfected cells; host or cells: HEK293
T1 sequence (P08235 1-984): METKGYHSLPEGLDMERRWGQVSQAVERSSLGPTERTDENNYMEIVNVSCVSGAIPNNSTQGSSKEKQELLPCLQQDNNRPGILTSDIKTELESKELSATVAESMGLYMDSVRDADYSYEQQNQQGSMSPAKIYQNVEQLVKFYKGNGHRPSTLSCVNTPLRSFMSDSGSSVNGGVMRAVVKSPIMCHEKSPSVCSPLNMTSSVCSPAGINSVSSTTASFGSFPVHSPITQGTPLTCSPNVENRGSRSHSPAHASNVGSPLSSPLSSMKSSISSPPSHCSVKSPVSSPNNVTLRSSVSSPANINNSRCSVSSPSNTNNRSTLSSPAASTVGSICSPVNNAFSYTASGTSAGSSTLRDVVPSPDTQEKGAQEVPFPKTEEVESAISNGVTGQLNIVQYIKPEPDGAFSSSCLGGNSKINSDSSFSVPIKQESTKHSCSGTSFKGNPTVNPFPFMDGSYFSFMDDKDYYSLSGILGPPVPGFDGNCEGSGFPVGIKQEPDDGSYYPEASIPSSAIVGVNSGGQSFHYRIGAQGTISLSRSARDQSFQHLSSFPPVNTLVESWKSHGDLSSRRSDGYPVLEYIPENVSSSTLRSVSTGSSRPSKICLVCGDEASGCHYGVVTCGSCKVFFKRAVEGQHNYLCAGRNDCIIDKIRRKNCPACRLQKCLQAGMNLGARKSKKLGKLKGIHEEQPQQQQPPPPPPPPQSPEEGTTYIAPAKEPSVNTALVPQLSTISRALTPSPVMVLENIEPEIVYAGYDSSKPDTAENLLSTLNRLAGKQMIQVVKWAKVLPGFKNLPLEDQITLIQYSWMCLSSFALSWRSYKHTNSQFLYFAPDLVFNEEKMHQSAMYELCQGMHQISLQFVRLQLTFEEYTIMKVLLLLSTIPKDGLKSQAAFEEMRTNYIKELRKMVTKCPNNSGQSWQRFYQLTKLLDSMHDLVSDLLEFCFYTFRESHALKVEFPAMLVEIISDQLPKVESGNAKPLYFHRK
Description: MR competition binding assay (HEK293 cell lysate). As to conditions: 0.25 nM 3H-aldosterone, 293-MR lysate. On the procedure:
(§1) Cell lysates from HEK293 cells overexpressing human GR (glucocorticoid receptor), AR (androgen receptor), MR (mineralocorticoid receptor) or PR (progesterone receptor) are used for competition binding assays to determine Ki values for compounds of interest. Briefly, competition binding assays are run in a buffer containing 20 mM HEPES, pH 7.6, 0.2 mM EDTA, 75 mM NaCl, 1.5 mM MgCl2, 20% glycerol, 20 mM sodium molybdate, 0.2 mM DTT, 20 ug/ml aprotinin, and 20 ug/ml leupeptin, using either 0.3 nM ^3H-dexamethasone for GR binding, 0.36 nM ^3H-methyltrienolone for AR binding, 0.25 nM ^3H-aldosterone for MR binding, or 0.29 nM ^3H-methyltrienolone for PR binding, and either 20 ug 293-GR lysate, 22 ug 293-AR lysate, 20 ug 293-MR lysate or 40 ug 293-PR lysate per well. Competing compounds are added at various concentrations in half-log increments. Non-specific binding is determined in the presence of 500 nM dexamethasone for GR binding, 500 nM aldosterone for MR binding, or 500 nM methyltrienolone for AR and PR binding. The binding reaction (140 μl) is incubated overnight at 4° C., then 70 μl of cold charcoal-dextran buffer (containing per 50 ml of assay buffer, 0.75 g of charcoal and 0.25 g of dextran) is added to each reaction. Plates are mixed 8 minutes on an orbital shaker at 4° C. Plates are then centrifuged at 3,000 rpm at 4° C. for 10 minutes. An aliquot of 120 μl of the mixture is transferred to another 96-well plate and 175 μl of Wallac Optiphase “Hisafe 3” scintillation fluid is added to each well. Plates are sealed and shaken vigorously on an orbital shaker. After an incubation of 2 hrs, plates are read in a Wallac Microbeta counter. […] The Kd for ^3H-dexamethasone for GR binding, ^3H-methyltrienolone for AR binding, ^3H-aldosterone for MR binding, or ^3H-methyltrienolone for PR binding, is determined by saturation binding. The IC50 values for compounds are converted to Ki using Cheng-Prusoff equation and the Kd determined by saturation binding assay.

The target in experiment [2] is T2, human AR (androgen receptor) (Homo sapiens, UniProt P10275).
T2 construct: expressed in transfected cells; host or cells: HEK293
T2 sequence (P10275 1-920): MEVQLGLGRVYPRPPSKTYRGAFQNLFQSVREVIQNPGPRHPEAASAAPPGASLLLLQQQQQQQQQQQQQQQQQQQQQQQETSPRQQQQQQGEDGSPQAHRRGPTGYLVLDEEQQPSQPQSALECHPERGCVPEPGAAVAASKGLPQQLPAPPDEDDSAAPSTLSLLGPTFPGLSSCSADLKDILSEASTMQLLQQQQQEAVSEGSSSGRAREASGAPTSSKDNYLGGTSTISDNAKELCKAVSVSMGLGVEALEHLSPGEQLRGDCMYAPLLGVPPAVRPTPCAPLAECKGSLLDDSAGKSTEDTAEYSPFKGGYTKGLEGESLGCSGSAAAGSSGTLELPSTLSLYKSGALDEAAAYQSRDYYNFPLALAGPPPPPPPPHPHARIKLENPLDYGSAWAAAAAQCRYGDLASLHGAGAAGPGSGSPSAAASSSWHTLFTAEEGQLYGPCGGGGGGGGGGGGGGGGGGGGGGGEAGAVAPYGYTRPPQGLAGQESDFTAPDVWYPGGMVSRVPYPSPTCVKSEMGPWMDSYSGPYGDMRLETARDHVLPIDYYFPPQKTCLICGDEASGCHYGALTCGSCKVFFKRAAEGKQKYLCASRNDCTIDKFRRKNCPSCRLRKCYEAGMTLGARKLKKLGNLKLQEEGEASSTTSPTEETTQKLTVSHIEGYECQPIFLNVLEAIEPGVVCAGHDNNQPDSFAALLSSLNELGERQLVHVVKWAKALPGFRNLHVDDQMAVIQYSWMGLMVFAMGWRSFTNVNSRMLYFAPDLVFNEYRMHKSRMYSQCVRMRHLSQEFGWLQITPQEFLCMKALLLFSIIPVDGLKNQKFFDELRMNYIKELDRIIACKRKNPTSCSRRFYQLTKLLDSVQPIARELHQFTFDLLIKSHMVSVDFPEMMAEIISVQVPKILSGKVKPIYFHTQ
As to the kind of experiment: AR competition binding assay (HEK293 cell lysate). As to conditions: 0.36 nM 3H-methyltrienolone, 293-AR lysate. On the procedure: as §1

Some results are limits rather than exact numbers.

Broadly, the Ki is the equilibrium dissociation constant of an inhibitor or competing ligand from its target. Higher therefore signals lower affinity. As to `CC(C)n1cc(-c2ccc(C#N)cc2)c2ccc(NS(=O)(=O)C(F)(F)F)cc21` [Example 98, N-[3-(4-Cyano-phenyl)-1-isopropyl-1H-indol-6-yl]-C,C,C-trifluoro-methanesulfonamide], the Ki in experiment [1] and in experiment [2] was above 1000 nM in each case.

Regarding `CC(C)n1cc(-c2ccc(C#N)cc2)c2ccc(NS(=O)(=O)N3CCOCC3)cc21` [Example 100, Morpholine-4-sulfonic acid [3-(4-cyano-phenyl)-1-isopropyl-1H-indol-6-yl]-amide], the Ki in experiment [1] and in experiment [2] was above 1000 nM throughout.

With `CC(C)n1cc(-c2ccc(Cl)cc2)c2ccc(NS(C)(=O)=O)cc21` [Example 36, N-[3-(4-Chloro-phenyl)-1-isopropyl-1H-indol-6-yl]-methanesulfonamide], the Ki in experiment [1] is above 1000 nM; in experiment [2] it was 500 to 1000 nM.

`CC(C)Cn1cc(-c2ccc(C#N)cc2)c2ccc(NS(C)(=O)=O)cc21` [Example 29, N-[3-(4-Cyano-phenyl)-1-isobutyl-1H-indol-6-yl]-methanesulfonamide]: the Ki in experiment [1] lay in the range of 500 to 1000 nM; in experiment [2], 100 to 500 nM.

As to `CS(=O)(=O)Nc1ccc2c(-c3ccc(C#N)cc3)cn(Cc3ccccc3)c2c1` [Example 72, N-[1-Benzyl-3-(4-cyano-phenyl)-1H-indol-6-yl]-methanesulfonamide], the Ki is below 50 nM in experiment [1] and above 1000 nM in experiment [2].

As for `Cn1cc(-c2ccc(C#N)cc2)c2ccc(NS(=O)(=O)c3cccs3)cc21` [Example 32, Thiophene-2-sulfonic acid [3-(4-cyano-phenyl)-1-methyl-1H-indol-6-yl]-amide], the Ki in experiment [1] and in experiment [2] was above 1000 nM throughout.

Consider `CC(C)n1cc(-c2ccc3sccc3c2)c2ccc(NS(C)(=O)=O)cc21` [Example 95, N-(3-Benzo[b]thiophen-5-yl-1-isopropyl-1H-indol-6-yl)-methanesulfonamide], for which the Ki in experiment [1] and in experiment [2] was 500 to 1000 nM throughout.
